Source: publication PMC4980666, “N-acylhydrazone inhibitors of influenza virus PA endonuclease with versatile metal binding modes” (Scientific Reports, 2016)
Where two headings read alike, the source gives them in different places.

What was measured:
[1] = tested on: influenza A virus (strain A/PR/8/34); assay: microbe, parasite or virus in culture; assay type: cell-based; conditions: for EC90 / EC99: Influenza A virus, 24 h; for EC90: read-out: Virus yield assay Antiviral activity EC90; for EC99: read-out: Virus yield assay Antiviral activity EC99
[2] = target: influenza virus vRNPs reconstituted in HEK293T cells (Influenza A virus, UniProt P03433); assay: vRNP reconstitution assay in HEK293T cells; assay type: cell-based; conditions: for selectivity index (ratio of CC50 to EC50): vRNP assay, HEK293T
in vitro [3] = conditions: dog
in vitro [4] = conditions: human, vRNP reconstitution assay Cytotoxicity CC50
[5] = tested on: influenza virus endonuclease; conditions: read-out: IC50 in enzymatic assays; cited from earlier work
[6] = MTS cell viability assay in uninfected MDCK cells; conditions: dog
[7] = MTS cell viability assay in untransfected HEK293T cells; conditions: human, vRNP reconstitution assay Cytotoxicity CC50, untransfected HEK293T cells
[8] = tested on: untransfected HEK293T cells; conditions: human, 24 h, 200 μM
[9] = PR/8, 1-log10 reduction in virus titer, qPCR, MDCK cells
[10] = PR/8, 2-log10 reduction in virus titer, qPCR, MDCK cells
[11] = read-out: vRNP reconstitution assay Activity EC50

SMILES | EC90 [1, 9] [µM] | EC99 [1, 10] [µM] | EC50 [2, 11] [µM] | CC50 at 24 h (in vitro [3]) [µM] | CC50 at 24 h (in vitro [4]) [µM] | SI (selectivity index, ratio between CC50 and EC90) ([1]; MDCK cells) | further results
COc1cccc(/C=N/NC(=O)c2ccccc2O)c1O [Compound 8] | > 12.5 | > 12.5 | 1.9 | > 200 |  |  | selectivity index (ratio of CC50 to EC50) [2]: below 8
CCCCCCCC(=O)N/N=C/c1cccc(O)c1O [Compound 3] |  |  | 5.9 | > 200 | < 50 |  | selectivity index (ratio of CC50 to EC50) [2]: below 8
O=C(N/N=C/c1cccc(O)c1O)c1ccccc1O [Compound 7] | 100 | 172 | 3.2 | > 200 |  | >2.0 | difference between EC50 in the vRNP assay and EC90 in the virus yield assay [2]: ≥ 8 fold; selectivity index (ratio of CC50 to EC50) [2]: below 8
O=C(N/N=C/c1ccccc1)c1cc(O)c(O)c(O)c1 [Compound 13] | 34 | 71 | 6.3 | > 200 | > 200 | >5.9 | 
O=C(O[C@@H]1Cc2c(O)cc(O)cc2O[C@@H]1c1cc(O)c(O)c(O)c1)c1cc(O)c(O)c(O)c1 [EGCG, epigallocatechin-3-gallate] |  |  |  |  |  |  | IC50 [5]: 1.9 µM
O=c1[nH]c(-c2ccc(-c3nnn[nH]3)cc2)ncc1O [2-(4-(1H-tetrazol-5-yl)phenyl)-5-hydroxypyrimidin-4(3H)-one] |  |  |  |  |  |  | IC50 [5]: 0.15 µM
COc1cc(C(=O)N/N=C/c2cc(O)ccc2O)cc(OC)c1OC [Compound 12] | > 12.5 | > 12.5 | 20 | > 200 | 39 |  | 
CCCCCCCC(=O)N/N=C/c1cccc(OC)c1O [Compound 4] |  |  | 6.3 | > 200 | < 50 |  | selectivity index (ratio of CC50 to EC50) [2]: below 8
O=C(N/N=C/c1ccc(O)c(O)c1O)c1cc(O)c(O)c(O)c1 [Compound 20] | 11 | 35 | 2.2 | > 200 | > 200 | >18 | 
COc1cccc(/C=N/NC(N)=O)c1O [Compound 2] |  |  | > 100 |  | > 200 |  | 
O=C(N/N=C/c1cc(O)c(O)cc1O)c1cc(O)c(O)c(O)c1 [Compound 21] | 3.6 | 8.3 | 2.5 | > 200 | > 200 | >56 | 
O=C(N/N=C/c1cc(O)c(O)cc1O)c1ccccc1O [Compound 9] | 5.3 | 16 | 5.5 | > 200 | > 200 | >38 | 
NNC(=O)c1cc(O)c(O)c(O)c1 [Compound 28, 3,4,5-trihydroxybenzohydrazide] | 85 | 158 | 7.2 | > 200 | > 200 | >2.4 | difference between EC50 in the vRNP assay and EC90 in the virus yield assay [2]: ≥ 8 fold
NC(=O)N/N=C/c1cccc(O)c1O [Compound 1, N’-(2,3-dihydroxybenzylidene)-semicarbazide] |  |  | 107 |  | > 200 |  | 
O=C(N/N=C/c1cc(O)ccc1O)c1cc(O)c(O)c(O)c1 [Compound 15] | 7.5 | 18 | 14 | ≥ 172 | > 200 | ≥23 | 
O=C(N/N=C/c1ccccc1O)c1cc(O)c(O)c(O)c1 [Compound 14] | 37 | 63 | 2.3 | > 200 | > 200 | >5.4 | difference between EC50 in the vRNP assay and EC90 in the virus yield assay [2]: ≥ 8 fold

SMILES | EC90 [1, 9] [µM] | EC99 [1, 10] [µM] | EC50 [2, 11] [µM] | CC50 at 24 h (in vitro [3]) [µM] | CC50 at 24 h (in vitro [4]) [µM] | SI (selectivity index, ratio between CC50 and EC90) ([1]; MDCK cells) | further results
O=C(N/N=C/c1ccc[nH]1)c1cc(O)c(O)c(O)c1 [Compound 25] | 70 | 132 | 4.1 | > 200 | > 200 | >2.9 | difference between EC50 in the vRNP assay and EC90 in the virus yield assay [2]: ≥ 8 fold
O=C(N/N=C/c1cc(O)c(O)c(O)c1)c1cc(O)c(O)c(O)c1 [Compound 23] | 3.5 | 11 | 3.1 | > 200 | > 200 | >57 | 
O=C(N/N=C/c1cccc(O)c1O)c1ccccc1 [Compound 5] | > 25 | > 25 | 2.6 | ≥ 146 |  |  | selectivity index (ratio of CC50 to EC50) [2]: below 8
O=C(O)c1ccc(-c2cccc(/C=N/NC(=O)c3cc(O)c(O)c(O)c3)c2)cc1 [Compound 26] | 13 | 36 | 5.5 | > 200 | > 200 | >15 | 
NC(=O)c1ncn([C@@H]2O[C@H](CO)[C@@H](O)[C@H]2O)n1 [Ribavirin, reference compound] |  |  |  |  |  |  | EC90 ([1]; PR/8, MDCK): 8.5 µM; EC99 ([1]; PR/8, MDCK): 13 µM; EC50 [2]: 9.4 µM; CC50 at 24 h [6]: > 200 µM; CC50 at 24 h [7]: > 200 µM
CC(C)/C=C1\N=C(CC(C)C)C(=O)N(O)C1=O [Flutimide] |  |  |  |  |  |  | IC50 [5]: 5.5 µM
COc1cccc(/C=N/NC(=O)c2ccccc2)c1O [Compound 6] | > 50 | > 50 | 15 | > 200 |  |  | selectivity index (ratio of CC50 to EC50) [2]: below 8
COc1cccc(/C=N/NC(=O)c2cc(O)c(O)c(O)c2)c1O [Compound 19] | 26 | 53 | 5.7 | > 200 | > 200 | >7.7 | cytotoxicity in the vRNP assay [8]: not cytotoxic at 200 μM
O=C(N/N=C/c1c(O)cc(O)cc1O)c1cc(O)c(O)c(O)c1 [Compound 22] | 3.4 | 7.4 | 0.42 | > 200 | > 200 | >59 | difference between EC50 in the vRNP assay and EC90 in the virus yield assay [2]: ≥ 8 fold
O=C(N/N=C/c1cccc(O)c1O)c1cc(O)c(O)c(O)c1 [Compound 18] | 2.2 | 6.2 | 3.3 | > 200 | > 200 | >91 | cytotoxicity in the vRNP assay [8]: not cytotoxic at 200 μM
O=C(N/N=C/c1cc(O)c(O)c(O)c1)c1ccccc1O [Compound 11] | 12 | 30 | 5.6 | > 200 | > 200 | >17 | 
NC(=O)N/N=C/c1cc(O)c(O)c(O)c1 [Compound 27] |  |  | 21 |  | > 200 |  | 
COc1ccc(O)c(/C=N/NC(=O)c2cc(O)c(O)c(O)c2)c1 [Compound 16] | 28 | 67 | 5.2 | > 200 | > 200 | >7.1 | 
O=C(N/N=C/c1ccccn1)c1cc(O)c(O)c(O)c1 [Compound 24] | 26 | 58 | 25 | > 200 | > 200 | >7.7 | 
O=C(N/N=C/c1ccc(O)cc1O)c1cc(O)c(O)c(O)c1 [Compound 17] | 8.1 | 21 | 7.1 | > 200 | > 200 | >25 | 
O=C(N/N=C/c1c(O)cc(O)cc1O)c1ccccc1O [Compound 10] | 8.5 | 14 | 0.4 | 111 | 132 |  | difference between EC50 in the vRNP assay and EC90 in the virus yield assay [2]: ≥ 8 fold
